The structures appear in SMILES notation.

Consider `CCN1C(=O)OCC(=O)N1Cc1ccc(Cl)nc1` [Example I-16, 4-(2-chloro-5-pyridylmethyl)-3-ethyl-1,3,4-oxadiazine-2,5-dione], for which the melting point (usually the temperature of the solid-liquid transition) fell in the range of 125 to 128 °C.

The values are drawn from patent US6414158B1, “1,3,4-oxadiazine derivatives and their use as pesticides” (Bayer AKtiengesellschaft, priority 1996, dated 2002).
